Assay results as given in PMC4959548 (Biochemical pharmacology, 2015).

T1: OATP1B1 (Homo sapiens, UniProt Q9Y6L6)
T1 sequence (Q9Y6L6 1-691): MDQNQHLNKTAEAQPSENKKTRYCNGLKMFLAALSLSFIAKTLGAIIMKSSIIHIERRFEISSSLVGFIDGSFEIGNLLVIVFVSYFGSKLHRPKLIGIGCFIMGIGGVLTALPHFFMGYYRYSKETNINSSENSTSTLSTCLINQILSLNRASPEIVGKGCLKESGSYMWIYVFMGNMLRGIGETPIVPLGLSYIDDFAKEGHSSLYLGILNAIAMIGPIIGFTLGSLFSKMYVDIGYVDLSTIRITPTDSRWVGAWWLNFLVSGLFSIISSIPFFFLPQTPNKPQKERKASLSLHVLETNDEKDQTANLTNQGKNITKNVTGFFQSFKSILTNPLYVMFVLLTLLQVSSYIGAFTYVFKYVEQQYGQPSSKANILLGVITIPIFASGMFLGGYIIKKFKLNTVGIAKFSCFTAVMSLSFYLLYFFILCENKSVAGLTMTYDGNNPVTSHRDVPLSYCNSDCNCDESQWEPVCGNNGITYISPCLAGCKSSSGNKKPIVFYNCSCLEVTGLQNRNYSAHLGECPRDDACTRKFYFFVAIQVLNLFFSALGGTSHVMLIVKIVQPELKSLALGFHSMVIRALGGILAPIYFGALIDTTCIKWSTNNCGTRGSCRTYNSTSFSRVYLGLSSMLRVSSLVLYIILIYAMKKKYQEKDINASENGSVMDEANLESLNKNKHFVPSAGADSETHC

T2: OATP1B3 (Homo sapiens, UniProt Q9NPD5)
T2 sequence (Q9NPD5 1-702): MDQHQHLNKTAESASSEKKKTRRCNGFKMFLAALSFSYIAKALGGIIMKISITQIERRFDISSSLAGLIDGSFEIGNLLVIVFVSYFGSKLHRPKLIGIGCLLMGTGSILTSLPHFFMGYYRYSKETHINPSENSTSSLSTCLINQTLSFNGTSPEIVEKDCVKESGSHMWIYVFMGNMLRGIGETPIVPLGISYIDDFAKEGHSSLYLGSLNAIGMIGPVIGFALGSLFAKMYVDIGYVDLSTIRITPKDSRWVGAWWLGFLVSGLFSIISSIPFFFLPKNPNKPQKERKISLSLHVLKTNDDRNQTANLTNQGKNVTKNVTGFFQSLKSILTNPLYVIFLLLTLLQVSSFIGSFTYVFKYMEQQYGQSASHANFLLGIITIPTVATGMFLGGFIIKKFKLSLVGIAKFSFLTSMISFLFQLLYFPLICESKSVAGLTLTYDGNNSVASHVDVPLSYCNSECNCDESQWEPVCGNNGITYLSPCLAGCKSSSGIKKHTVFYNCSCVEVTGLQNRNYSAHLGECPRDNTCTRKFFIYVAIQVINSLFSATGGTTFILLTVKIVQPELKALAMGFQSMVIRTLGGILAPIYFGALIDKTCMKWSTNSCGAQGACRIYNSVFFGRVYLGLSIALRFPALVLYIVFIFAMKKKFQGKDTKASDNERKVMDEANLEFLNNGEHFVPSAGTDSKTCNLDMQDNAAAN

B1: OATP1B1 (Homo sapiens) (protein)
chain: T1 sequence (Q9Y6L6 1-691)

Legend:
Test in all cases: flow cytometry uptake in Sf9 cells expressing the transporter
[1] = target: T1, OATP1B1; format: cell-based
[2] = target: T2, OATP1B3; format: cell-based
[3] = substrate: O=C1OC2(c3ccc(O)cc3Oc3cc(O)ccc32)c2ccccc21; format: cell-based, Homo sapiens

Row | Molecule | Km [1] | Km [2] | Km [3]
1 | fluorescein-methotrexate [Fl-MTX] | 0.23 µM | 0.53 µM | –
2 | O=C1OC2(c3ccc(O)cc3Oc3cc(O)ccc32)c2ccccc21 [Na-Fluo, sodium fluorescein] | – | 38.6 µM | –
3 | B1 | – | – | 25.73 µM
